From patent publication US20150132405A1, “SYNERGISTIC COMPOSITIONS OF MONOCHLOROUREA AND MODIFIED MONOCHLOROUREAS” (HERCULES INCORPORATED, priority 2013, published 2015)
In brackets after ≈: the same amount, converted by molar mass. Read-outs that look alike come from different tables or passages of the source.

System: Escherichia coli
Experiment: Minimal Inhibitory Concentration (MIC), two-fold dilution series in 96 well microplate
Type: cell-based
Conditions: for MIC (QA), used alone: first biocide used alone
From the text: While there are various methods known to individuals skilled in the art for measuring levels of antimicrobial activity, in the following examples the endpoint used is known as the Minimal Inhibitory Concentration, or MIC. This is the lowest concentration of a substance or substances which can achieve complete inhibition of growth.
In order to determine the Minimal Inhibitory Concentration, a two-fold dilution series of the biocide is constructed with the dilutions being made in growth media. The dilutions are made in a 96 well microplate such that each well has a final volume of 280 μl of media and biocide. The first well has, for example, a concentration of 1000 ppm biocide, the second 500 ppm, the third 250 ppm, and so forth, with the 12th and final well in the row having no biocide at all and serving as a positive growth control. After the dilution series is constructed the wells receive an inoculum of microbe suspended in growth media such that the final concentration of microbes in the well is ˜5×10^5 cfu/ml. In these examples the test microbe used is Escherichia coli. The cultures are incubated at an appropriate temperature for 18-24 hours, and the wells scored as positive or negative for growth based on a visual examination for turbid wells.

[1] = Escherichia coli, second biocide used alone, complete inhibition of growth, 18-24 hours, read-out: MIC (QB), used alone
[2] = Escherichia coli, used alone, Table 26
[3] = second biocide used alone, complete inhibition of growth, 18-24 hours
[4] = complete inhibition of growth, 18-24 hours

CC1(C)C(=O)N(Cl)C(=O)N1Br [BCDMH, 1-bromo-3-chloro-5,5-dimethylhydantoin]
MIC [1]: 61 µg/mL (≈ 253 µM)

N#CC(Br)(Br)C(N)=O [DBNPA, 2,2-dibromo-3-nitrilopropionamide]
MIC [1]: 11 µg/mL (≈ 45.5 µM)

N-alkyl (C12-C16)-N,N-dimethyl benzylalkonium chloride [QAC]
QAC MIC (QB), used alone [2]: 27 ppm
MIC (QB), used alone [3]: 27 ppm

NC(=O)NCl [MCU, monochlorourea]
MIC (QA), used alone [4]: 100 ppm
MIC (QB), used alone [3]: 100 ppm

N#CSCSC#N [MBT, methylene bisthiocyanate]
MIC (Escherichia coli, read-out: MIC (QB), used alone): 8 µg/mL (≈ 61.4 µM)

OO [H2O2, hydrogen peroxide]
MIC (QB), used alone [3]: 1000 ppm

NCl [MCA, monochloramine]
MIC (QB), used alone [3]: 47 ppm

O=CCCCC=O [GLUT, glutaraldehyde]
MIC [1]: 45 µg/mL (≈ 449 µM)
MIC (Escherichia coli, used alone, Table 28, read-out: GLUT MIC (QB), used alone): 45 µg/mL (≈ 449 µM)

methyl monochlorourea [MMCU]
MIC (QB), used alone [3]: 16 ppm

CNC(=O)N(C)Cl [DMCU, dimethyl monochlorourea]
DMCU MIC (QA), used alone [2]: 10 ppm
DMCU MIC (QA), used alone (Escherichia coli, used alone, Table 27): 10 ppm
DMCU MIC (QA), used alone (Escherichia coli, used alone, Table 28): 10 ppm
MIC (QA), used alone [4]: 10 ppm
MIC (QB), used alone [3]: 10 ppm

O=[N+]([O-])C(Br)(CO)CO [BNPD, 2-bromo-2-nitropropane-1,3,-diol]
MIC (QB), used alone [3]: 24 ppm
